Data from ChEMBL document CHEMBL1201862, “PubChem BioAssay data set” (2004).
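Five concentrations, 48 hours, 96-well plates. Here, GI50 denotes the concentration required for 50% inhibition of growth.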 Activity calls are given as the source filed them. Cut-off read from the data, not from the text of the source: active = GI50 up to about 1.1 µM and inactive = higher.

What was measured:
Assay in all cases: inhibition of tumour cell growth, NCI panel, 48 h
[1] = test system: EKVX
[2] = test system: SW-620
[3] = test system: COLO 205
[4] = test system: OVCAR-4
[5] = test system: MDA-MB-231
[6] = test system: UACC-257
[7] = test system: HOP-62
[8] = test system: SF-295
[9] = test system: LOX IMVI
[10] = test system: NCI-H522
[11] = test system: NCI/ADR-RES
[12] = test system: HT-29
[13] = test system: SF-539
[14] = test system: DU-145
[15] = test system: Malme-3M
[16] = test system: A498
[17] = test system: M14
[18] = test system: NCI-H460
[19] = test system: U-251
[20] = test system: SNB-75

Structure (SMILES) | GI50 [1] | GI50 [2] | GI50 [3] | GI50 [4] | GI50 [5] | GI50 [6] | GI50 [7] | GI50 [8] | GI50 [9] | GI50 [10] | GI50 [11] | GI50 [12] | GI50 [13] | GI50 [14] | GI50 [15] | GI50 [16] | GI50 [17] | GI50 [18] | GI50 [19] | GI50 [20]
COc1cc(C2CC(C)(O)Oc3cc4c(cc32)OCO4)cc(OC)c1OC (stereo not drawn) | 5.36 µM (inactive) | 0.33 µM (active) | 0.419 µM (active) | 0.938 µM (active) | 0.252 µM (active) | 0.822 µM (active) | 0.501 µM (active) | 0.184 µM (active) | 0.839 µM (active) | 0.266 µM (active) | 0.233 µM (active) | 0.334 µM (active) | 0.195 µM (active) | 0.546 µM (active) | 0.205 µM (active) | 4.6 µM (inactive) | 0.466 µM (active) | 0.389 µM (active) | 0.358 µM (active) | –
O=C(O)CN1CCN2CCCCCN(CC1)CCN(CC(=O)O)CC2 | > 100 µM (inactive) | 83.9 µM (inactive) | > 100 µM (inactive) | > 100 µM (inactive) | > 100 µM (inactive) | > 100 µM (inactive) | > 100 µM (inactive) | > 100 µM (inactive) | > 100 µM (inactive) | 53.3 µM (inactive) | 22.1 µM (inactive) | 31.2 µM (inactive) | > 100 µM (inactive) | > 100 µM (inactive) | 22.4 µM (inactive) | > 100 µM (inactive) | > 100 µM (inactive) | 91.4 µM (inactive) | > 100 µM (inactive) | 11.4 µM (inactive)
NC(=S)NNCC(=O)CC(O)(C(F)(F)F)C(F)(F)Cl (stereo not drawn) | > 100 µM (inactive) | > 100 µM (inactive) | > 100 µM (inactive) | > 100 µM (inactive) | > 100 µM (inactive) | > 100 µM (inactive) | – | > 100 µM (inactive) | > 100 µM (inactive) | > 100 µM (inactive) | > 100 µM (inactive) | > 100 µM (inactive) | > 100 µM (inactive) | > 100 µM (inactive) | > 100 µM (inactive) | > 100 µM (inactive) | > 100 µM (inactive) | 63.2 µM (inactive) | > 100 µM (inactive) | 29.6 µM (inactive)
COC(=O)/C=C1/OC(c2ccccc2)=C(Cl)C1=O | 19.5 µM (inactive) | 20.5 µM (inactive) | 15.9 µM (inactive) | 20.7 µM (inactive) | 18.8 µM (inactive) | 24.9 µM (inactive) | 25.9 µM (inactive) | 27.7 µM (inactive) | 13.6 µM (inactive) | 17.9 µM (inactive) | 25.9 µM (inactive) | 22.3 µM (inactive) | 19.8 µM (inactive) | 29 µM (inactive) | 18.4 µM (inactive) | 29.4 µM (inactive) | 16.9 µM (inactive) | 25 µM (inactive) | 14 µM (inactive) | 20.1 µM (inactive)
CC1=C2C(=O)OCC23C=COC3(C)O1 (stereo not drawn) | 35.7 µM (inactive) | 26.2 µM (inactive) | 21.5 µM (inactive) | 29.4 µM (inactive) | 18.6 µM (inactive) | 32.7 µM (inactive) | 34.2 µM (inactive) | 41.4 µM (inactive) | 30.3 µM (inactive) | 29.1 µM (inactive) | 34.9 µM (inactive) | 29.3 µM (inactive) | 21.2 µM (inactive) | 39.4 µM (inactive) | 27.9 µM (inactive) | 43.3 µM (inactive) | 24.7 µM (inactive) | 48.4 µM (inactive) | 25.4 µM (inactive) | 24.8 µM (inactive)
N#CC(NNC(=O)c1ccccc1O)c1c(O)ccc2ccccc12 (stereo not drawn) | 5.66 µM (inactive) | 4.3 µM (inactive) | 13.2 µM (inactive) | 2.58 µM (inactive) | 3.2 µM (inactive) | 3.67 µM (inactive) | 3.33 µM (inactive) | 4.78 µM (inactive) | 0.877 µM (active) | 4.42 µM (inactive) | 3.44 µM (inactive) | 20.3 µM (inactive) | 4.63 µM (inactive) | 2.54 µM (inactive) | 6.27 µM (inactive) | 34.7 µM (inactive) | 3.46 µM (inactive) | 2.99 µM (inactive) | 3.79 µM (inactive) | 7.31 µM (inactive)
O=c1c2cc([N+](=O)[O-])ccc2[nH]n1Cc1ccccn1 | > 100 µM (inactive) | > 100 µM (inactive) | > 100 µM (inactive) | > 100 µM (inactive) | > 100 µM (inactive) | > 100 µM (inactive) | > 100 µM (inactive) | > 100 µM (inactive) | > 100 µM (inactive) | > 100 µM (inactive) | > 100 µM (inactive) | > 100 µM (inactive) | > 100 µM (inactive) | > 100 µM (inactive) | > 100 µM (inactive) | > 100 µM (inactive) | > 100 µM (inactive) | > 100 µM (inactive) | > 100 µM (inactive) | > 100 µM (inactive)
N#CC1=C(N)N(/N=C/c2ccco2)C(c2ccco2)C1(C#N)C#N (stereo not drawn) | 19.5 µM (inactive) | 11.2 µM (inactive) | 14.2 µM (inactive) | 15.4 µM (inactive) | 19.5 µM (inactive) | 16.3 µM (inactive) | 23.2 µM (inactive) | 28.4 µM (inactive) | 14.2 µM (inactive) | 15.3 µM (inactive) | 25.1 µM (inactive) | 14.2 µM (inactive) | 22.1 µM (inactive) | 17.7 µM (inactive) | 18.9 µM (inactive) | 16 µM (inactive) | 20 µM (inactive) | – | 18.9 µM (inactive) | 16.8 µM (inactive)
O=C(c1ccco1)N(C(=S)OC12CC3CC(CC(C3)C1)C2)c1ccccc1 | 18.8 µM (inactive) | 29 µM (inactive) | 16.4 µM (inactive) | 36.1 µM (inactive) | 31.8 µM (inactive) | 30.9 µM (inactive) | 28.2 µM (inactive) | 27.7 µM (inactive) | 26.7 µM (inactive) | 19.9 µM (inactive) | 28.6 µM (inactive) | 33.5 µM (inactive) | 20.2 µM (inactive) | 52.8 µM (inactive) | 26.8 µM (inactive) | 23.3 µM (inactive) | 20.9 µM (inactive) | 30.8 µM (inactive) | 23.3 µM (inactive) | 48.5 µM (inactive)
O=C(/C=C/c1cccs1)c1ccccc1Cl | 15.1 µM (inactive) | 14.5 µM (inactive) | 18.8 µM (inactive) | 6.31 µM (inactive) | 19.2 µM (inactive) | 17.8 µM (inactive) | 15.8 µM (inactive) | 17.8 µM (inactive) | 12.4 µM (inactive) | 2.77 µM (inactive) | 15 µM (inactive) | 16.9 µM (inactive) | 22.4 µM (inactive) | 12.4 µM (inactive) | 12.2 µM (inactive) | 10.2 µM (inactive) | 1.99 µM (inactive) | 15.8 µM (inactive) | 13.5 µM (inactive) | 13.4 µM (inactive)
CC1(C)CC(=O)C(CC2C(=O)c3ccccc3C2=O)C(=O)C1C(=O)C(=O)Nc1cccc2ccc(O)cc12 (stereo not drawn) | 43.9 µM (inactive) | > 100 µM (inactive) | > 100 µM (inactive) | 88.7 µM (inactive) | 34 µM (inactive) | > 100 µM (inactive) | – | 92.3 µM (inactive) | 94.4 µM (inactive) | > 100 µM (inactive) | 54.1 µM (inactive) | > 100 µM (inactive) | > 100 µM (inactive) | > 100 µM (inactive) | > 100 µM (inactive) | 20.8 µM (inactive) | > 100 µM (inactive) | > 100 µM (inactive) | > 100 µM (inactive) | 78 µM (inactive)
COc1c(O)c(OC)c2oc(-c3ccc(O)c(O)c3)c(OC)c(=O)c2c1O | 29.6 µM (inactive) | 36.1 µM (inactive) | 27.1 µM (inactive) | 55 µM (inactive) | 23.1 µM (inactive) | 24 µM (inactive) | 6.98 µM (inactive) | 39.3 µM (inactive) | 23.9 µM (inactive) | 10.5 µM (inactive) | 55.1 µM (inactive) | 30.7 µM (inactive) | 14.6 µM (inactive) | 24.2 µM (inactive) | 6.24 µM (inactive) | 31.6 µM (inactive) | 17.6 µM (inactive) | 35.9 µM (inactive) | 16.9 µM (inactive) | 3.62 µM (inactive)
CC(C)C[C@H](NC(=O)[C@H](Cc1cccc2ccccc12)NS(=O)(=O)c1cccc2cccnc12)B(O)O | 0.372 µM (active) | < 0.0176 µM (active) | < 0.0243 µM (active) | 0.0109 µM (active) | < 0.0149 µM (active) | 0.0103 µM (active) | 0.0444 µM (active) | – | < 0.0118 µM (active) | 0.0106 µM (active) | 2.32 µM (inactive) | < 0.0165 µM (active) | < 0.01 µM (active) | 0.0445 µM (active) | < 0.01 µM (active) | < 0.0147 µM (active) | – | 0.0893 µM (active) | 0.0264 µM (active) | –
C=C1CC(Cn2ccc(=O)[nH]c2=O)(c2ccc(-c3ccccc3)cc2)OC1=O (stereo not drawn) | 12.2 µM (inactive) | 0.257 µM (active) | 0.441 µM (active) | 2.1 µM (inactive) | 1.98 µM (inactive) | 1.65 µM (inactive) | 15.2 µM (inactive) | 12.5 µM (inactive) | 0.493 µM (active) | 0.836 µM (active) | 0.805 µM (active) | 0.938 µM (active) | 2.4 µM (inactive) | 1.05 µM (active) | 1.46 µM (inactive) | 2.86 µM (inactive) | 1.67 µM (inactive) | 11.2 µM (inactive) | 12.1 µM (inactive) | 13.6 µM (inactive)
